Measured values as given in EPA's ToxRefDB 2.

Experiments:
[1] = test system: mouse; settings: Carcinogenicity, cd1, Oral, Feed, dose end: 104 week, group: systemic
[2] = test system: dog; settings: Chronic toxicity, beagle, Oral, Feed, dose end: 104 week, group: systemic
[3] = test system: rat; settings: Multigenerational reproductive toxicity study, sprague dawley, Oral, Feed, dose end: 2 generation
[4] = test system: rabbit; settings: Prenatal developmental toxicity study, new zealand white, Oral, Gavage/Intubation, dose end: 28 GD
[5] = test system: dog; settings: Subchronic oral toxicity in nonrodent, beagle, Feed, dose end: 90 day, group: systemic
[6] = test system: rat; settings: Developmental neurotoxicity study; long evans; Injection; Subcutaneous; dose end: 132 PND; group: cannot be grouped; systemic / pathology gross / brain / reduced size + systemic / pathology microscopic / brain / depletion cellular
[7] = test system: dog; settings: Subchronic oral toxicity in nonrodent, beagle, Feed, dose end: 13 week, group: systemic, systemic / clinical chemistry / globulins / globulins + systemic / clinical chemistry / protein / protein + systemic / hematology / platelet…
[8] = test system: rat; settings: Prenatal developmental toxicity study, other, Oral, Gavage/Intubation, dose end: 15 GD
[9] = test system: rat; settings: Multigenerational reproductive toxicity study, other, Oral, Feed, dose end: 2 generation
[10] = test system: rat; settings: Subchronic oral toxicity in rodents, other, Feed, dose end: 13 week, group: systemic, systemic / pathology microscopic / stomach / erosion + systemic / pathology microscopic / stomach / inflammation + systemic / pathology …
[11] = systemic / pathology microscopic / liver / adenoma/carcinoma combined + systemic / pathology microscopic / liver / carcinoma + systemic / …
[12] = systemic / pathology microscopic / liver / carcinoma + systemic / pathology microscopic / liver / adenoma/carcinoma combined + systemic / …
[13] = systemic / pathology microscopic / liver / [other] + systemic / clinical chemistry / alanine aminotransferase (alt/sgpt) / alanine …
[14] = systemic / pathology microscopic / liver / [other] + systemic / in life observation / body weight / body weight gain + systemic / in life …
[15] = group: offspring, systemic / in life observation / body weight / offspring (pup) weight
[16] = group: parental, systemic / pathology microscopic / epididymis / hypospermia + systemic / pathology microscopic / testes / atrophy + systemic / pathology …
[17] = group: developmental, developmental / developmental malformation / kidney / small renal papilla
[18] = group: maternal, systemic / in life observation / clinical signs / body surface staining + systemic / in life observation / food consumption / food …
[19] = systemic / clinical chemistry / cholesterol / cholesterol + systemic / clinical chemistry / albumin / albumin + systemic / in life …
[20] = group: developmental, developmental / developmental malformation / bone / wavy
[21] = group: maternal, systemic / in life observation / body weight / body weight gain
[22] = group: offspring, systemic / organ weight / spleen / absolute + systemic / organ weight / spleen / relative to body weight + developmental / offspring …
[23] = group: offspring, systemic / organ weight / spleen / absolute + systemic / organ weight / spleen / relative to body weight + systemic / organ weight / thymus…
[24] = group: parental, systemic / in life observation / body weight / body weight + systemic / in life observation / clinical signs / general pallor

CCCCNC(=O)n1c(NC(=O)OC)nc2ccccc21 [Benomyl]
LOAEL [1, 11]: > 750 mg/kg/day
NOAEL [1, 11]: ≥ 750 mg/kg/day
LEL [1, 12]: 75 mg/kg/day
NEL [1, 12]: < 75 mg/kg/day
LEL [2, 13]: 62.5 mg/kg/day
LOAEL [2, 13]: 62.5 mg/kg/day
NEL [2, 14]: 12.5 mg/kg/day
NOAEL [2, 14]: 12.5 mg/kg/day
LEL [3, 15]: 234 mg/kg/day
LOAEL [3, 15]: 234 mg/kg/day
NOAEL [3, 15]: 38 mg/kg/day
NEL ([3]; group: offspring, systemic / in life observation / body weight / offspring (pup) weight + systemic / in life observation / clinical signs / reduced body size): 38 mg/kg/day
LOAEL ([3]; group: parental, systemic / pathology microscopic / epididymis / hypospermia): 234 mg/kg/day
NOAEL ([3]; group: parental, systemic / pathology microscopic / epididymis / hypospermia + systemic / in life observation / body weight / body weight + systemic / in …): 38 mg/kg/day
LEL [3, 16]: 168 mg/kg/day
NEL [3, 16]: 28 mg/kg/day
LEL [4, 17]: 180 mg/kg/day
LOAEL [4, 17]: 180 mg/kg/day
NEL [4, 17]: 90 mg/kg/day
NOAEL [4, 17]: 90 mg/kg/day
LEL [4, 18]: 180 mg/kg/day
LOAEL [4, 18]: 180 mg/kg/day
NEL [4, 18]: 90 mg/kg/day
NOAEL [4, 18]: 90 mg/kg/day
LEL ([5]; systemic / clinical chemistry / cholesterol / cholesterol): 12.5 mg/kg/day
LOAEL ([5]; systemic / clinical chemistry / cholesterol / cholesterol + systemic / clinical chemistry / alanine aminotransferase (alt/sgpt) / alanine …): 37.5 mg/kg/day
NEL [5, 19]: 2.5 mg/kg/day
NOAEL [5, 19]: 12.5 mg/kg/day

COc1cc2c(c(OC)c1OC)-c1ccc(OC)c(=O)cc1[C@@H](NC(C)=O)CC2 [Colchicine]
LEL [6]: 0.4 mg/kg/day
LOAEL [6]: > 0.4 mg/kg/day
NEL [6]: < 0.4 mg/kg/day
NOAEL [6]: ≥ 0.4 mg/kg/day

CCCCCCCCn1sc(Cl)c(Cl)c1=O [4,5-Dichloro-2-octyl-3(2H)-isothiazolone]
LEL [7]: 45.9 mg/kg/day
LOAEL [7]: 45.9 mg/kg/day
NEL [7]: 10.1 mg/kg/day
NOAEL [7]: 10.1 mg/kg/day
LEL [8, 20]: 100 mg/kg/day
LOAEL [8, 20]: 100 mg/kg/day
NEL [8, 20]: 30 mg/kg/day
NOAEL [8, 20]: 30 mg/kg/day
LEL [8, 21]: 10 mg/kg/day
NEL [8, 21]: < 10 mg/kg/day
LOAEL ([8]; group: maternal, systemic / in life observation / clinical signs / defecation + systemic / in life observation / food consumption / food consumption): 30 mg/kg/day
NOAEL ([8]; group: maternal, systemic / in life observation / clinical signs / defecation + systemic / in life observation / food consumption / food consumption + …): 10 mg/kg/day
NEL [9, 22]: 10 mg/kg/day
NOAEL [9, 22]: 10 mg/kg/day
LEL [9, 23]: 20 mg/kg/day
LOAEL [9, 23]: 20 mg/kg/day
LOAEL ([9]; group: parental, systemic / in life observation / body weight / body weight + systemic / in life observation / body weight / body weight gain): 40 mg/kg/day
LEL ([9]; group: parental, systemic / in life observation / body weight / body weight + systemic / in life observation / body weight / body weight gain + systemic / in…): 40 mg/kg/day
NEL [9, 24]: 20 mg/kg/day
NOAEL [9, 24]: 20 mg/kg/day
LEL [10]: 60.7 mg/kg/day
LOAEL [10]: 60.7 mg/kg/day
NEL [10]: 32.5 mg/kg/day
NOAEL [10]: 32.5 mg/kg/day
